Experimental data reported in patent US12655153B2, “Solid forms of a HBV core protein allosteric modifier” (Hoffmann-La Roche Inc., priority 2019, dated 2026).
In brackets after ≈: the same amount, converted by molar mass. Entries after “also recorded” stand apart in the source; their conditions may differ.

How the values were obtained:
[1] = Stability of solid forms, stability chamber 40° C. and 75%-RH, XRPD after 1 month; assay type: physicochemical; conditions: 40° C./75%-RH
Procedure: 40 mg of compound (I) in different solid forms were stored in a stability chamber with temperature and humidity controlled at 40° C. and 75%-RH, respectively. After 1 month, the samples were analyzed by XRPD to check their solid form and compared with their initial solid form.

[2] = Apparent solubility study in pH buffers (50 mM), 25° C., 24 hours, HPLC; assay type: physicochemical; conditions: for Solubility: 25° C.; for Final pH: after 24 hours; for Solubility compared with Form A: pH7 and pH9
Procedure: Apparent solubility was determined by suspending 5 mg of compound (I) in different bio-relevant media including pH buffers (50 mM). The suspensions were equilibrated at 25° C. for 24 hours. The suspensions were then filtered through a 0.22 μm PVDF filter into a 2-mL HPLC vial. The quantification of the filtrate was conducted by HPLC with reference to a standard solution.

[3] = In vivo PK study
Text: (§1) Therefore, sodium salt Form J is suitable to be formulated as sustained-release oral formulation. […] Therefore, sodium salt Form J could be developed as enteric release formulations to avoid conversion in SGF and achieve higher solubility in intestinal environment for better absorption.

[4] = Conversion of solid form in SGF; assay type: physicochemical
Text: as §1

[5] = Apparent solubility in FaSSIF over time; assay type: physicochemical
Text: as §1

[6] = Physical stability of solid forms (general statements, accelerated and long term stability testing); assay type: physicochemical; conditions: conditions not stated
Text: Developing novel forms of compound (I) with good processability or acceptable aqueous solubility is one of the objectives of current invention. Some novel solid forms enhance the developability of compound (I) fundamentally. The physical stability of drug substances is an integral part of the systematic approach to the stability evaluation of pharmaceuticals due to its potential impacts on drug chemical stability performance and safety. The greater the stability is, the longer the shelf life could be. Therefore, the accelerated and long term stability testing used in this invention could be used to predict shelf lives.

[7] = Apparent solubility in purified water, 25° C., 24 hours, HPLC, residue by XRPD; assay type: physicochemical; conditions: for Solubility / Final pH / XRPD of residue: purified water; for Solubility: 25° C., 24 hours; for Final pH / XRPD of residue: after 24 hours
Procedure: Apparent solubility in water was determined by suspending 5 mg of compound (I) in purified water. The suspensions were equilibrated at 25° C. for 24 hours. The suspensions were then filtered through a 0.22 μm PVDF filter into a 2-mL HPLC vial. The quantitation of the filtrate was conducted by HPLC with reference to a standard solution. The solids were analyzed by XRPD.

[8] = Stability of solid forms, stability chamber 25° C. and 60%-RH, XRPD after 1 month; assay type: physicochemical; conditions: 25° C./60%-RH
Procedure: 20 mg of compound (I) in different solid forms were stored in a stability chamber with temperature and humidity controlled at 25° C. and 60%-RH. After 1 month, the samples were analyzed by XRPD to check their solid form and compared with their initial solid form.

[9] = listed as Example 3, Form A of compound (I)
[10] = listed as Example 16, Form H of compound (I)
[11] = listed as Example 1, Form D of compound (I)

CCOC(=O)C1=C(CN2CCN3C(=O)N(CC(C)(C)C(=O)O)C[C@@H]3C2)NC(c2nccs2)=N[C@H]1c1cccc(F)c1C [Form J, 3-[(8aS)-7-[[(4S)-5-ethoxycarbonyl-4-(3-fluoro-2-methyl-phenyl)-2-thiazol-2-yl-1,4-dihydropyrimidin-6-yl]methyl]-3-oxo-5,6,8,8a-tetrahydro-1H-imidazo[1,5-a]pyrazin-2-yl]-2,2-dimethyl-propanoic acid]
Solid form stability compared with Form D [1]: better solid form stability than the original Form D | Physical stability (solid form by XRPD) ([1]; listed as Example 15, sodium salt Form J of compound (I)): no solid form change | Solubility compared with other crystal forms of the parent compound (I) [2]: improved solubility compared with some of other crystal forms | Solubility ([2]; pH 1 buffer, 24 hours, listed as Example 15, sodium salt Form J of compound (I)): 1510 µg/mL | Final pH ([2]; pH 1 buffer, listed as Example 15, sodium salt Form J of compound (I)): 1.12 | Solubility ([2]; pH 3 buffer, 24 hours, listed as Example 15, sodium salt Form J of compound (I)): 16 µg/mL | Final pH ([2]; pH 3 buffer, listed as Example 15, sodium salt Form J of compound (I)): 3.53 | Solubility ([2]; pH 5 buffer, 24 hours, listed as Example 15, sodium salt Form J of compound (I)): 2.8 µg/mL | Final pH ([2]; pH 5 buffer, listed as Example 15, sodium salt Form J of compound (I)): 5.22 | Solubility compared with Form A [2]: higher solubility than Form A at pH7 and pH9 | Solubility ([2]; pH 7 buffer, 24 hours, listed as Example 15, sodium salt Form J of compound (I)): 690 µg/mL | Final pH ([2]; pH 7 buffer, listed as Example 15, sodium salt Form J of compound (I)): 7.34 | Solubility ([2]; pH 9 buffer, 24 hours, listed as Example 15, sodium salt Form J of compound (I)): >10000 µg/mL | Final pH ([2]; pH 9 buffer, listed as Example 15, sodium salt Form J of compound (I)): 8.80 | Absorption rate to reach Cmax [3]: much slower absorption rate to reach Cmax | Solid form conversion [4]: converted to HCl salt immediately | Apparent solubility in FaSSIF [5]: increased with time | Physical / solid state stability ([6]; listed as sodium salt Form J): improved stability compared with Form D

CCOC(=O)C1=C(CN2CCN3C(=O)N(CC(C)(C)C(=O)O)C[C@@H]3C2)NC(c2nccs2)=N[C@H]1c1cccc(F)c1C [Form A, 3-[(8aS)-7-[[(4S)-5-ethoxycarbonyl-4-(3-fluoro-2-methyl-phenyl)-2-thiazol-2-yl-1,4-dihydropyrimidin-6-yl]methyl]-3-oxo-5,6,8,8a-tetrahydro-1H-imidazo[1,5-a]pyrazin-2-yl]-2,2-dimethyl-propanoic acid]
solubility at 24 h ([2]; pH 1 buffer (50 mM), 25 °C, pH 1, aqueous buffer, thermodynamic from solid, pH 1 buffer, 24 hours): 940 µg/mL (≈ 1570 µM) | Final pH ([2]; pH 1 buffer, listed as Example 3, Form A of compound (I)): 1.05 | Solubility ([2]; pH 3 buffer, 24 hours, listed as Example 3, Form A of compound (I)): 66 µg/mL (≈ 110 µM) | Final pH ([2]; pH 3 buffer, listed as Example 3, Form A of compound (I)): 2.97 | Solubility ([2]; pH 5 buffer, 24 hours, listed as Example 3, Form A of compound (I)): 4 µg/mL (≈ 6.68 µM) | Final pH ([2]; pH 5 buffer, listed as Example 3, Form A of compound (I)): 4.99 | Solubility ([2]; pH 7 buffer, 24 hours, listed as Example 3, Form A of compound (I)): 72 µg/mL (≈ 120 µM) | Final pH ([2]; pH 7 buffer, listed as Example 3, Form A of compound (I)): 6.98 | Solubility ([2]; pH 9 buffer, 24 hours, listed as Example 3, Form A of compound (I)): 4820 µg/mL (≈ 8050 µM) | Final pH ([2]; pH 9 buffer, listed as Example 3, Form A of compound (I)): 8.46 | Solubility [7, 9]: 50 µg/mL (≈ 83.5 µM) | Final pH [7, 9]: 6.97 | XRPD of residue [7, 9]: Form A

CCOC(=O)C1=C(CN2CCN3C(=O)N(CC(C)(C)C(=O)O)C[C@@H]3C2)NC(c2nccs2)=N[C@H]1c1cccc(F)c1C [Form Amorphous, 3-[(8aS)-7-[[(4S)-5-ethoxycarbonyl-4-(3-fluoro-2-methyl-phenyl)-2-thiazol-2-yl-1,4-dihydropyrimidin-6-yl]methyl]-3-oxo-5,6,8,8a-tetrahydro-1H-imidazo[1,5-a]pyrazin-2-yl]-2,2-dimethyl-propanoic acid]
Physical / solid state stability [6]: significantly improved stability compared with Form D

CCOC(=O)C1=C(CN2CCN3C(=O)N(CC(C)(C)C(=O)O)C[C@@H]3C2)NC(c2nccs2)=N[C@H]1c1cccc(F)c1C [Form H, 3-[(8aS)-7-[[(4S)-5-ethoxycarbonyl-4-(3-fluoro-2-methyl-phenyl)-2-thiazol-2-yl-1,4-dihydropyrimidin-6-yl]methyl]-3-oxo-5,6,8,8a-tetrahydro-1H-imidazo[1,5-a]pyrazin-2-yl]-2,2-dimethyl-propanoic acid]
Stability compared with Form D [8]: better stability than the original Form D | Physical stability (solid form by XRPD) [8, 10]: no solid form change | Solubility ([2]; pH 1 buffer, 24 hours, listed as Example 16, Form H of compound (I)): 1581 µg/mL (≈ 2640 µM) | Final pH ([2]; pH 1 buffer, listed as Example 16, Form H of compound (I)): 1.08 | Solubility ([2]; pH 3 buffer, 24 hours, listed as Example 16, Form H of compound (I)): 56 µg/mL (≈ 93.5 µM) | Final pH ([2]; pH 3 buffer, listed as Example 16, Form H of compound (I)): 3.01 | Solubility ([2]; pH 5 buffer, 24 hours, listed as Example 16, Form H of compound (I)): 6 µg/mL (≈ 10 µM) | Final pH ([2]; pH 5 buffer, listed as Example 16, Form H of compound (I)): 5.03 | Solubility compared with Form A [2]: higher solubility than Form A at pH7 and pH9 | Solubility ([2]; pH 7 buffer, 24 hours, listed as Example 16, Form H of compound (I)): 244 µg/mL (≈ 408 µM) | Final pH ([2]; pH 7 buffer, listed as Example 16, Form H of compound (I)): 6.97 | Solubility ([2]; pH 9 buffer, 24 hours, listed as Example 16, Form H of compound (I)): >10000 µg/mL | Final pH ([2]; pH 9 buffer, listed as Example 16, Form H of compound (I)): 8.90 | Solubility [7, 10]: 453 µg/mL (≈ 757 µM) | Final pH [7, 10]: 7.35 | XRPD of residue [7, 10]: Form H | Water solubility compared with Form A ([7]; water): unexpected higher water solubility than Form A; also recorded: significant higher water solubility than the anhydrate Form A | Physical / solid state stability [6]: improved stability compared with Form D; also recorded: acceptable solid state stability

CCOC(=O)C1=C(CN2CCN3C(=O)N(CC(C)(C)C(=O)O)C[C@@H]3C2)NC(c2nccs2)=N[C@H]1c1cccc(F)c1C [Form Q, 3-[(8aS)-7-[[(4S)-5-ethoxycarbonyl-4-(3-fluoro-2-methyl-phenyl)-2-thiazol-2-yl-1,4-dihydropyrimidin-6-yl]methyl]-3-oxo-5,6,8,8a-tetrahydro-1H-imidazo[1,5-a]pyrazin-2-yl]-2,2-dimethyl-propanoic acid]
Solubility ([2]; pH 1 buffer, 24 hours, listed as Example 24, potassium salt Form Q of compound (I)): 1560 µg/mL | Final pH ([2]; pH 1 buffer, listed as Example 24, potassium salt Form Q of compound (I)): 1.1 | Final pH ([2]; pH 3 buffer, listed as Example 24, potassium salt Form Q of compound (I)): 3.49 | Final pH ([2]; pH 5 buffer, listed as Example 24, potassium salt Form Q of compound (I)): 5.17 | Solubility ([2]; pH 7 buffer, 24 hours, listed as Example 24, potassium salt Form Q of compound (I)): 3580 µg/mL | Final pH ([2]; pH 7 buffer, listed as Example 24, potassium salt Form Q of compound (I)): 6.97 | Solubility ([2]; pH 9 buffer, 24 hours, listed as Example 24, potassium salt Form Q of compound (I)): >10000 µg/mL | Final pH ([2]; pH 9 buffer, listed as Example 24, potassium salt Form Q of compound (I)): 8.71

CCOC(=O)C1=C(CN2CCN3C(=O)N(CC(C)(C)C(=O)O)C[C@@H]3C2)NC(c2nccs2)=N[C@H]1c1cccc(F)c1C [Form D, 3-[(8aS)-7-[[(4S)-5-ethoxycarbonyl-4-(3-fluoro-2-methyl-phenyl)-2-thiazol-2-yl-1,4-dihydropyrimidin-6-yl]methyl]-3-oxo-5,6,8,8a-tetrahydro-1H-imidazo[1,5-a]pyrazin-2-yl]-2,2-dimethyl-propanoic acid]
Solid form stability compared with Form D [1]: better solid form stability than the original Form D | Physical stability (solid form by XRPD) [1, 11]: solid form change | Physical stability (solid form by XRPD) [8, 11]: solid form change | Physical / solid state stability [6]: physically unstable
